Assay results from patent publication EP3744729B1, “PEPTIDES, COMPOSITIONS COMPRISING THEM AND COSMETIC AND DERMOPHARMACEUTICAL USES” (SEDERMA, priority 2009, dated 2023).
Where a SMILES comes first, the peptide text is derived from it. [ ]: non-standard residue; d: D form. The star is where a group is joined. Met(O2) = CS(=O)(=O)CC[C@H](N)C(=O)O; Palmitoyl = CCCCCCCCCCCCCCCC(=O)*; Ava = NCCCCC(=O)O

Experiments:
[1] = system: normal human dermal fibroblasts (NHF); assay: ELISA test on normal human dermal fibroblasts (NHF): macromolecules in culture supernatant; type: cell-based; conditions: % difference compared to the control; for Collagen I in the dermis Test 1: Table 7; for Collagen I in the dermis: 3 days contact
Method: > ELISA test on normal human dermal fibroblasts (NHF)
This test examines the dermal molecules.
Normal human dermal fibroblasts are cultured in multi-well plates. The cells either are or are not placed in contact with the test substances for 3 days. The culture supernatants are removed and the quantity of macromolecules present (collagen I, fibronectin, collagen IV and hyaluronic acid) is assayed by ELISA.

dermal NHF = assay: Immunostaining method on dermal NHF: collagen I (Table 7, Test 2); type: cell-based, human; conditions: % difference compared to the control
Text: Table 7 showing % differences in collagen I in the dermis compared to the control for dioxygenated peptide compounds according to the immunostaining method or to ELISA test on dermal NHF

[2] = system: normal human dermal fibroblasts (NHF); assay: Immunofluorescence (IMF) on normal human dermal fibroblasts (NHF): collagen III; type: cell-based; conditions: 5 ppm peptide
Method: > Immunofluorescence (IMF) on normal human dermal fibroblasts (NHF)
This test examines dermal molecules.
Norman human fibroblasts are cultured in plates. The cells either are or are not placed in contact with the test substances for […]. The cell layers are then labeled with antibodies specifically recognizing collagen III. Photographs were used to reveal and quantify the synthesis of collagen III.

Human Keratinocytes (HK) = assay: ELISA test on Human Keratinocytes (HK): macromolecules in culture supernatant; type: cell-based; conditions: epidermal HK, % difference compared to the control
Method: > ELISA test on Human Keratinocytes (HK)
This test examines epidermal molecules.
Human keratinocytes are cultured in multi-well plates. The cells either are or are not placed in contact with the test substances for 3 days. The culture supernatants are removed and the quantity of macromolecules present (fibronectin, laminins and hyaluronic acid) is assayed by ELISA.

[3] = Table 5, ELISA, 5 ppm peptide, no plant

CCCCCCCCCCCCCCCC(=O)N[C@@H](CCCCN)C(=O)N[C@H](C(=O)N[C@@H](Cc1ccccc1)C(=O)N[C@@H](CCCCN)C(=O)O)[C@@H](C)O [Pal-K-T-F-K-OH, reference compound] (Palmitoyl-KTFK-OH)
Collagen I in the dermis Test 1 ([1]; 4 ppm): +82%
Collagen I in the dermis Test 1 ([1]; 6 ppm): +103%

CCCCCCCCCCCCCCCC(=O)N[C@@H](CCCCN)C(=O)N[C@@H](CC(N)=O)C(=O)N[C@@H](CCCCN)C(=O)O [Pal-KNK-OH] (Palmitoyl-Lys-Asn-Lys-OH)
Collagen I in the dermis ([1]; 5 ppm peptide): +55%

CCCCCCCCCCCCCCCC(=O)N[C@@H](CCCCN)C(=O)N[C@@H](CCS(C)(=O)=O)C(=O)N[C@H](C(=O)N[C@@H](CCCCN)C(=O)O)[C@@H](C)O [Pal-K-MO2-T-K-OH] (Palmitoyl-K[Met(O2)]TK-OH)
Collagen I in the dermis Test 1 ([1]; 4 ppm): +45%
Collagen I in the dermis Test 1 ([1]; 6 ppm): +194%
Collagen I in the dermis Test 2 (dermal NHF; 4 ppm): +192%
Collagen I in the dermis Test 2 (dermal NHF; 6 ppm): +217%

CCCCCCCCCCCCCCCC(=O)N[C@@H](CCCCN)C(=O)N[C@@H](CCS(C)(=O)=O)C(=O)NCCCCC(=O)N[C@@H](CCCCN)C(=O)O [Pal-K-MO2-Ava-K-OH] (Palmitoyl-K[Met(O2)][Ava]K-OH)
Collagen I in the dermis Test 1 ([1]; 2 ppm): +75%

CCCCCCCCCCCCCCCC(=O)N[C@@H](CCS(C)(=O)=O)C(=O)N[C@@H](CCCCN)C(=O)O [Pal-MO2-K-OH] (Palmitoyl-[Met(O2)]-Lys-OH)
Collagen I in the dermis Test 2 (dermal NHF; 2 ppm): +270%
Collagen I in the dermis Test 2 (dermal NHF; 4 ppm): +457%
Collagen I in the dermis Test 2 (dermal NHF; 6 ppm): +226%

CCCCCCCCCCCCCCCC(=O)N[C@@H](CCCCN)C(=O)N[C@@H](CCSC)C(=O)N[C@@H](CCCCN)C(=O)O [Pal-KMK-OH] (Palmitoyl-Lys-Met-Lys-OH)
Collagen I in the dermis ([1]; 4 ppm peptide): +21%
Collagen I in the dermis ([1]; 8 ppm peptide): +64%
Collagen I in the dermis Test 1 ([1]; 4 ppm): +21%
Collagen I in the dermis Test 1 ([1]; 6 ppm): +63%

CCCCCCCCCCCCCCCC(=O)N[C@@H](CCCCN)C(=O)NCCCCC(=O)N[C@@H](CCCCN)C(=O)O [Pal-K-Ava-K-OH, reference compound]
Collagen I in the dermis Test 1 ([1]; 4 ppm): +116%
Collagen I in the dermis Test 1 ([1]; 6 ppm): +175%

CCCCCCCCCCCCCCCC(=O)N[C@@H](CCCCN)C(=O)N[C@@H](CS)C(=O)N[C@@H](CCCCN)C(=O)O [Pal-KCK-OH] (Palmitoyl-Lys-Cys-Lys-OH)
Coll. I ([1]; 4 ppm peptide): +145%
Coll. IV ([1]; 4 ppm peptide): -1%
Collagen I in the dermis ([1]; 4 ppm peptide): +145%
Coll. I ([1]; 6 ppm peptide): +133%
Coll. IV ([1]; 6 ppm peptide): +23%
Collagen I in the dermis ([1]; 6 ppm peptide): +133%
Fibronectin ([1]; dermal NHF, 4 ppm peptide): +57%
Fibronectin ([1]; dermal NHF, 6 ppm peptide): +70%

CCCCCCCCCCCCCCCC(=O)N[C@@H](CCCCN)C(=O)N[C@@H](Cc1ccccc1)C(=O)N[C@@H](CCS(C)(=O)=O)C(=O)N[C@@H](CCCCN)C(=O)O [Pal-K-F-MO2-K-OH] (Palmitoyl-KF[Met(O2)]K-OH)
Collagen I in the dermis Test 1 ([1]; 4 ppm): +80%
Collagen I in the dermis Test 1 ([1]; 6 ppm): +81%

CCCCCCCCCCCCCCCC(=O)N[C@@H](CCCCN)C(=O)NCCCCC(=O)N[C@@H](CCS(C)(=O)=O)C(=O)N[C@@H](CCCCN)C(=O)O [Pal-K-Ava-MO2-K-OH] (Palmitoyl-K[Ava][Met(O2)]K-OH)
Collagen I in the dermis Test 1 ([1]; 2 ppm): +63%
Collagen I in the dermis Test 1 ([1]; 4 ppm): +167%

CCCCCCCCCCCCCCCC(=O)N[C@@H](CCCCN)C(=O)N[C@@H](C)C(=O)N[C@@H](CCCCN)C(=O)O [Pal-KAK-OH, reference compound] (Palmitoyl-Lys-Ala-Lys-OH)
Coll. I ([1]; 4 ppm peptide): +42%
Coll. IV ([1]; 4 ppm peptide): -6%
Fibronectin ([1]; dermal NHF, 4 ppm peptide): +33%

CCCCCCCCCCCCCCCC(=O)N[C@@H](CCCCN)C(=O)N[C@H](C(=O)N[C@@H](CCS(C)(=O)=O)C(=O)N[C@@H](CCCCN)C(=O)O)[C@@H](C)O [Pal-K-T-MO2-K-OH] (Palmitoyl-KT[Met(O2)]K-OH)
Collagen I in the dermis Test 1 ([1]; 4 ppm): +75%
Collagen I in the dermis Test 1 ([1]; 6 ppm): +161%
Collagen I in the dermis Test 2 (dermal NHF; 2 ppm): +273%
Collagen I in the dermis Test 2 (dermal NHF; 4 ppm): +341%
Collagen I in the dermis Test 2 (dermal NHF; 6 ppm): +262%

CCCCCCCCCCCCCCCC(=O)N[C@@H](CCS(C)(=O)=O)C(=O)NCCCCC(N)=O [Pal-MO2-Ava-NH2]
Collagen I in the dermis Test 2 (dermal NHF; 2 ppm): +375%
Collagen I in the dermis Test 2 (dermal NHF; 4 ppm): +582%
Collagen I in the dermis Test 2 (dermal NHF; 6 ppm): +461%

CCCCCCCCCCCCCCCC(=O)N[C@@H](CCCCN)C(=O)N[C@H](C(=O)N[C@@H](Cc1ccccc1)C(=O)N[C@@H](CCS(C)(=O)=O)C(N)=O)[C@@H](C)O [Pal-K-T-F-MO2-NH2] (Palmitoyl-KTF[Met(O2)]-NH2)
Collagen I in the dermis Test 1 ([1]; 4 ppm): +106%
Collagen I in the dermis Test 1 ([1]; 6 ppm): +121%
Collagen I in the dermis Test 2 (dermal NHF; 2 ppm): +267%
Collagen I in the dermis Test 2 (dermal NHF; 4 ppm): +420%
Collagen I in the dermis Test 2 (dermal NHF; 6 ppm): +400%

CCCCCCCCCCCCCCCC(=O)NCCCCC(=O)N[C@@H](CCS(C)(=O)=O)C(N)=O [Pal-Ava-MO2-NH2]
Collagen I in the dermis Test 2 (dermal NHF; 2 ppm): +495%
Collagen I in the dermis Test 2 (dermal NHF; 4 ppm): +667%
Collagen I in the dermis Test 2 (dermal NHF; 6 ppm): +557%

CCCCCCCCCCCCCCCC(=O)N[C@@H](CCCCN)C(=O)N[C@@H](CO)C(=O)N[C@@H](CCCCN)C(=O)O [Pal-KSK-OH, reference compound] (Palmitoyl-Lys-Ser-Lys-OH)
Coll. I ([1]; 4 ppm peptide): +46%
Coll. IV ([1]; 4 ppm peptide): +1%
Fibronectin ([1]; dermal NHF, 4 ppm peptide): +26%

CCCCCCCCCCCCCCCC(=O)N[C@@H](CCCCN)C(=O)N[C@@H](CCC(N)=O)C(=O)N[C@@H](CCCCN)C(=O)O [Pal-KQK-OH]
Coll. I ([1]; 5 ppm peptide): +82%
Fibronectin ([1]; dermal NHF, 5 ppm peptide): +35%

CCCCCCCCCCCCCCCC(=O)N[C@@H](CCCCN)C(=O)N[C@@H](CCS(C)(=O)=O)C(=O)N[C@@H](Cc1ccccc1)C(=O)N[C@@H](CCCCN)C(=O)O [Pal-K-MO2-F-K-OH] (Palmitoyl-K[Met(O2)]FK-OH)
Collagen I in the dermis Test 1 ([1]; 4 ppm): +91%

CCCCCCCCCCCCCCCC(=O)N[C@@H](CCS(C)(=O)=O)C(=O)N[C@H](C(=O)N[C@@H](Cc1ccccc1)C(=O)N[C@@H](CCCCN)C(=O)O)[C@@H](C)O [Pal-MO2-T-F-K-OH] (Palmitoyl-[Met(O2)]TFK-OH)
Collagen I in the dermis Test 1 ([1]; 4 ppm): +111%
Collagen I in the dermis Test 1 ([1]; 6 ppm): +148%
Collagen I in the dermis Test 2 (dermal NHF; 2 ppm): +218%
Collagen I in the dermis Test 2 (dermal NHF; 4 ppm): +456%
Collagen I in the dermis Test 2 (dermal NHF; 6 ppm): +520%

CCCCCCCCCCCCCCCC(=O)N[C@@H](CCCCN)C(=O)N[C@@H](CCS(C)(=O)=O)C(=O)N[C@@H](CCCCN)C(=O)O [Pal-KMO2K-OH] (Palmitoyl-Lys-[Met(O2)]-Lys-OH)
Coll. III ([2]; % difference compared to the control, 35 days contact): +104%
Coll. III ([2]; Table 5, % difference compared to the control, no plant): +104%
Hyaluronic acid (Human Keratinocytes (HK); Table 6, 2 ppm peptide, no plant): +44%
Hyaluronic acid (Human Keratinocytes (HK); Table 6, 4 ppm peptide, no plant): +139%
Hyaluronic acid (Human Keratinocytes (HK); Table 6, 5 ppm peptide, no plant): +172%
Hyaluronic acid (Human Keratinocytes (HK); Table 6, 6 ppm peptide, no plant): +290%
Fibronectin (Human Keratinocytes (HK); 4 ppm peptide): +35%
Hyaluronic acid (Human Keratinocytes (HK); 4 ppm peptide): +139%
Laminins (Human Keratinocytes (HK); 4 ppm peptide): +30%
Fibronectin (Human Keratinocytes (HK); 5 ppm peptide): +65%
Hyaluronic acid (Human Keratinocytes (HK); 5 ppm peptide): +172%
Laminins (Human Keratinocytes (HK); 5 ppm peptide): +66%
Fibronectin (Human Keratinocytes (HK); 6 ppm peptide): +159%
Hyaluronic acid (Human Keratinocytes (HK); 6 ppm peptide): +290%
Laminins (Human Keratinocytes (HK); 6 ppm peptide): +172%
Coll. I ([1]; 4 ppm peptide): +188%
Coll. IV ([1]; 4 ppm peptide): +27%
Collagen I in the dermis ([1]; 4 ppm peptide): +188%
Coll. I ([1]; 6 ppm peptide): +187%
Coll. IV ([1]; 6 ppm peptide): +97%
Collagen I in the dermis ([1]; 6 ppm peptide): +187%
Coll. I [1, 3]: +111%
Coll. IV [1, 3]: +42%
Fibronectin [1, 3]: +59%
Hyaluronic acid [1, 3]: ≈0%
Collagen I in the dermis Test 1 ([1]; 4 ppm): +188%
Collagen I in the dermis Test 1 ([1]; 6 ppm): +187%
Fibronectin ([1]; dermal NHF, 4 ppm peptide): +42%
Hyaluronic acid ([1]; dermal NHF, 4 ppm peptide): ≈0%
Fibronectin ([1]; dermal NHF, 6 ppm peptide): +109%
Hyaluronic acid ([1]; dermal NHF, 6 ppm peptide): +55%
Collagen I in the dermis Test 2 (dermal NHF; 2 ppm): +329%
Collagen I in the dermis Test 2 (dermal NHF; 4 ppm): +423%
Collagen I in the dermis Test 2 (dermal NHF; 5 ppm): +486%
